In one test the target is TRPC3 (Homo sapiens, UniProt Q13507). The experiment in a line: Fluorescence cell-based assay, TRPC3. Conditions: membrane potential dye, duplicate. On the procedure: (§1) The assays were performed at SB Discovery (Glasgow, UK) on a fee-for-service basis. Human TRP cells were trypsinised, counted and seeded in black, clear-bottomed 96 well plates at a density of 50,000 cells per well in 100 μL volume and incubated overnight. Next day, the cells were loaded with calcium 5 dye or membrane potential dye. TRPV1-5, TRPA1, TRPM2, TRPM3, and TRPM8 were tested using the calcium 5 dye. TRPC1, TRPC3-7, and TRPM4-5 were tested using the membrane potential dye. Both dye solutions were made up in HEPES buffered Hank's balanced salt solution (HBSS). Dye solution (90 μL) was added to the wells and incubated at 37° C. for 1 hour. Test compounds and standard inhibitors (10 μL) were then added to the wells and incubated at room temperature for 10 minutes. The plates were then placed in the flexstation and fluorescence monitored every 1.52 seconds. After 20 seconds agonist was added and the fluorescence monitored for 2 minutes at 485 nm/525 nm and 530 nm/565 nm, Ex/Em, for the calcium 5 dye and the membrane potential dye respectively. Controls-TRPV1: capsazepine; TRPV2: tranilast; TRPV3: ruthenium red; TRPV4: ruthenium red; TRPV5: Gd^3+; TRPA1, ruthenium red; TRPC1: Gd^3+; TRPC3: Pyr3; TRPC4: ML 204; TRPC5: ML 204; TRPC6: ML 204; TRPC7: SKF 96365; TRPM2: 2-APB; TRPM3: Mef acid; TRPM4: clotrimazole; TRPM5: TPPO; TRPM8: 2-APB. […]

Another test deals with TRPC6 (Homo sapiens, UniProt Q9Y210). In words: Fluorescence cell-based assay, TRPC6. The conditions noted are these: membrane potential dye, duplicate. On the procedure:
as §1

A further test concerns the target TRPM3 (Homo sapiens, UniProt Q9HCF6). In words: Fluorescence cell-based assay, TRPM3. The conditions noted are these: calcium 5 dye, duplicate. The protocol: as §1
For a further test, the target named is T1, TRPV2 (Homo sapiens, UniProt Q9Y5S1).
T1 sequence (Q9Y5S1 1-764): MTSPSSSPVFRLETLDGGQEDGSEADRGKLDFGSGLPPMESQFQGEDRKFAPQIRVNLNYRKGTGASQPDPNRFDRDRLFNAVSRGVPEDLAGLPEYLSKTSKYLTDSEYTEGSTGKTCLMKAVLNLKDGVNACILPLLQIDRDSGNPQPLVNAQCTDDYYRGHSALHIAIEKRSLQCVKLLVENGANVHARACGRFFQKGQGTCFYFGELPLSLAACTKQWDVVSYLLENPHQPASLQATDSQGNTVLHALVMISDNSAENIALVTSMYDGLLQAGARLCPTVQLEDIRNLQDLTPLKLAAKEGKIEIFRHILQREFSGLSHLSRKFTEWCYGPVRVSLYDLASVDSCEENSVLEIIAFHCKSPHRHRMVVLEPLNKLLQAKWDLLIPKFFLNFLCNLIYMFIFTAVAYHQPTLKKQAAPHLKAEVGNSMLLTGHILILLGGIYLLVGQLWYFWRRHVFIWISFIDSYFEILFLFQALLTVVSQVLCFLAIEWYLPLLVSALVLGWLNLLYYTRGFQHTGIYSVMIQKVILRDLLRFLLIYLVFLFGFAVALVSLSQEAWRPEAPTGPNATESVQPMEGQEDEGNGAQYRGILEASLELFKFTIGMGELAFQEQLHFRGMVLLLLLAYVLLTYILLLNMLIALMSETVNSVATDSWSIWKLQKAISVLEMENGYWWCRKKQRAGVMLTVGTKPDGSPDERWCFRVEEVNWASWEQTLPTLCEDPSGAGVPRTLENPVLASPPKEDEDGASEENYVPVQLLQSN
The experiment in a line: Manual patch-clamp assay, hTRPV2 stable HEK-293 cells. Conditions: n=2; for IC50: read-out: IC50 against TRPV2, patch-clamp assay. The test is classed as cell-based. The protocol: The assays were performed at SB Discovery (Glasgow, UK) on a fee-for-service basis. Concentration-response curves and washout assays were performed using a manual patch clamp method. HEK-293 cells were grown and prepared, according to the adapted procedure for hTRPV2 stable cell lines at SB Discovery. Cells were serum starved for approximately 24 hours and then changed to serum-containing media prior to electrophysiology testing. The manual patch-clamp assay was carried out at room temperature using a traditional electrophysiological unit. Cells were used within 2-3 hours after addition of serum containing media to the cells. The standard extracellular solution contained 145 mM NaCl, 4 mM KCl, 2 mM CaCl2, 1 mM MgCl2, 10 mM HEPES and 10 mM glucose. The pH was adjusted to 7.4 with NaOH, and the osmolarity was measured as 311 mOsm/L. The standard intracellular solution contained 50 mM KCl, 10 mM NaCl, 60 mM KF, 2 mM MgCl2, 20 mM EGTA and 10 mM HEPES. The pH was adjusted to 7.2 with KOH and the osmolarity was measured as 286 mOsm/L. A standard ramp protocol was used to monitor currents upon addition of control (extracellular solution) and compound solutions. The voltage protocol consisted of a series of voltage ramps from −100 mV to +100 mV, every 5 seconds, from a holding potential of −60 mV. The maximum outward current values during the recordings at +100 mV were used for analysis. Manual patch clamp experiments were carried out using an Axon 200B amplifier and a Digidata 1440A acquisition system from Axon Instruments (Molecular Devices, USA). The software program pClamp (version 10) from Axon Instruments was used to stimulate and record electrical activity. Capacitative transients were compensated electronically from the recordings, however the voltage drop across the series resistance and the liquid junction potential were not compensated. The series resistance was generally less than 10 MΩ, with a mean cell capacity of approximately 25 pF. The GraphPad Prism (version 5) software was used to analyze and plot all graphs. The agonist (cannabidiol; Abcam #ab120448) was prepared as 100 mM stock in 100% DMSO and diluted to 4 μM or 10 μM in physiological solution prior to testing. Piperlongumine was prepared as 100 mM stock in 100% DMSO and diluted to the specified concentrations in physiological solution (100, 50, 10, 1 and 0.1 μM), also containing 4 μM or 10 μM cannabidiol. Ruthenium red (Sigma, #R2751) was prepared daily as 10 mM stock ion distilled water and diluted to 100 μM in physiological solution.
Background: The patch-clamp technique gives a direct electrical read-out from membranes.

The next test relates to PC3 cell line. In words: Cell viability, PC3. The conditions noted are these: 5 and 10 μM, 24 hours. The test is classed as cell-based. On the procedure: (§2) 5,000 cells/well were seeded in 96 well plates with DMEM containing 2% FBS. The next day piperlongumine was added at various concentrations. […] At 24, 48 and 72 hours the media was removed and replaced with CellTiter-Blue (Promega, 1:20 in media). The plate was incubated for 90 minutes before measuring fluorescence intensity.

Another test has as its system U251 cells. The experiment in a line: Toxicity assay (CellTiter-Blue), U251. Format: cell-based. Conditions: 24, 48 and 72 hours; various concentrations. On the procedure: as §2
(In general: The colour change of resazurin is a common sign of viable cells or microbes.)

“Also recorded” adds a separate entry of the source. Where two headings read alike, the source gives them in different places.

The IC50 is the concentration that inhibits the measured activity by half.

TRPM3, sequence (Q9HCF6 whole entry): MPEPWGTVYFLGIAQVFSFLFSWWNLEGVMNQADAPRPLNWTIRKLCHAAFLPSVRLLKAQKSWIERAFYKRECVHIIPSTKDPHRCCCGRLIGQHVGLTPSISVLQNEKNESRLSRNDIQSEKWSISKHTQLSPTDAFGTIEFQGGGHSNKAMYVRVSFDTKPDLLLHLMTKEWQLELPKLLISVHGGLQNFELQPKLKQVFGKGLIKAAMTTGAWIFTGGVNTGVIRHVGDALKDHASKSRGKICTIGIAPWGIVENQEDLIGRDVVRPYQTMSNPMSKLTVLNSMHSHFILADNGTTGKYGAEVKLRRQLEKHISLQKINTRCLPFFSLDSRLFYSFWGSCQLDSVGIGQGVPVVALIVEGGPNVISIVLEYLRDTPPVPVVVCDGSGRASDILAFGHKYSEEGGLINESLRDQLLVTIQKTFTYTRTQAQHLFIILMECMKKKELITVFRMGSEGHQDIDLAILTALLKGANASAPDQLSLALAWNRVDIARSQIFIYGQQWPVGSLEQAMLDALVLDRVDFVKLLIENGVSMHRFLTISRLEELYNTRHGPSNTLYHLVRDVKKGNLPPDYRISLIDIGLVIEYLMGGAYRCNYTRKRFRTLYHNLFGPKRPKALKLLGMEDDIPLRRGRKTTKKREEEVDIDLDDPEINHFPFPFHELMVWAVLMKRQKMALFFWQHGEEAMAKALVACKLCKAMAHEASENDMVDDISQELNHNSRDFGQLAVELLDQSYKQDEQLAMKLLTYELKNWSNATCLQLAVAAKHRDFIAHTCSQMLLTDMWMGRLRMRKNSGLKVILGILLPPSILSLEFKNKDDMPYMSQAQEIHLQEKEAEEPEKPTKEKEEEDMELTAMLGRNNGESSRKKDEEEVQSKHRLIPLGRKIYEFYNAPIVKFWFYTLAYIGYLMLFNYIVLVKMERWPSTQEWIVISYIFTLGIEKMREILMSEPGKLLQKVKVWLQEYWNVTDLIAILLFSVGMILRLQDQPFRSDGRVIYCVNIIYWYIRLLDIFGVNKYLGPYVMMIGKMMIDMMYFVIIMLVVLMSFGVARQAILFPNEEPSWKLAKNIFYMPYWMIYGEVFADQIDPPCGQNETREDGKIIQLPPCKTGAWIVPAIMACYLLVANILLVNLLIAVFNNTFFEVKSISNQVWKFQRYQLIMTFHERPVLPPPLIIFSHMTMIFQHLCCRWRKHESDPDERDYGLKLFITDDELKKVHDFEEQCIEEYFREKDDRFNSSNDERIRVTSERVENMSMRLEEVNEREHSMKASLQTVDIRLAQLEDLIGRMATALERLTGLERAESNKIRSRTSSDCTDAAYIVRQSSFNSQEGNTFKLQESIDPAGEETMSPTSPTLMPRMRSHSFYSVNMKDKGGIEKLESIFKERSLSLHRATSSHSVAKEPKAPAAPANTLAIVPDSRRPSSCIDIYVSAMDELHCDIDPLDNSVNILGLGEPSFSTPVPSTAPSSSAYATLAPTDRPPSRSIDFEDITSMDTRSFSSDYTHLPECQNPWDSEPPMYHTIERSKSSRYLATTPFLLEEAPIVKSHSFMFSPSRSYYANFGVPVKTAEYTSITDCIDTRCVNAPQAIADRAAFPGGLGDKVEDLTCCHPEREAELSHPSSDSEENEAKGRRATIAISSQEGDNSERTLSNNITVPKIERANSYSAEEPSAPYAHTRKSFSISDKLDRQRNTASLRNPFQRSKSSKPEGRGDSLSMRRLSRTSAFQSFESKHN
TRPC3, sequence (Q13507 whole entry): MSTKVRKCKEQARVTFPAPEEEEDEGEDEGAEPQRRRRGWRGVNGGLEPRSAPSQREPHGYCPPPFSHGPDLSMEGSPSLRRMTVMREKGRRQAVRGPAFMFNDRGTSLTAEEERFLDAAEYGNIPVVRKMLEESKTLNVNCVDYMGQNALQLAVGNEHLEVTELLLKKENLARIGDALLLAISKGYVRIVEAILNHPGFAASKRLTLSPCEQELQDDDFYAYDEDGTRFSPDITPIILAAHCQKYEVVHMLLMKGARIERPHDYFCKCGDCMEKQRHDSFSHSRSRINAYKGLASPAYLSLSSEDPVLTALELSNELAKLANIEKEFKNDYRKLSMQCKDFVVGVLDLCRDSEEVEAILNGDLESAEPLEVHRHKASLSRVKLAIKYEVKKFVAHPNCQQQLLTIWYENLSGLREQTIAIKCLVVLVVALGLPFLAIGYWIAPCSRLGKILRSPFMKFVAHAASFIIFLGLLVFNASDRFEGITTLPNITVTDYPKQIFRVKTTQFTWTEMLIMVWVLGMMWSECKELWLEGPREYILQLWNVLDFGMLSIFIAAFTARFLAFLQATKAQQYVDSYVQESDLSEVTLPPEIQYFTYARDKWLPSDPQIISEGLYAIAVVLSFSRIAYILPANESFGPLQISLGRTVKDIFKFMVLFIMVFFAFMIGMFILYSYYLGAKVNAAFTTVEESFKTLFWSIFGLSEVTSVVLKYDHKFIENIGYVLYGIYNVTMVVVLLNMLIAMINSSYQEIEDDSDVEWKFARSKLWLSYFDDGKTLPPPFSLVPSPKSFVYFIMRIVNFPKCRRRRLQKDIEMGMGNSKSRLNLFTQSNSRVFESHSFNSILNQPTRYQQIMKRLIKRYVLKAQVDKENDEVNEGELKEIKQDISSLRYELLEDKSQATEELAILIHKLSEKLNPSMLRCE
TRPC6, sequence (Q9Y210 whole entry): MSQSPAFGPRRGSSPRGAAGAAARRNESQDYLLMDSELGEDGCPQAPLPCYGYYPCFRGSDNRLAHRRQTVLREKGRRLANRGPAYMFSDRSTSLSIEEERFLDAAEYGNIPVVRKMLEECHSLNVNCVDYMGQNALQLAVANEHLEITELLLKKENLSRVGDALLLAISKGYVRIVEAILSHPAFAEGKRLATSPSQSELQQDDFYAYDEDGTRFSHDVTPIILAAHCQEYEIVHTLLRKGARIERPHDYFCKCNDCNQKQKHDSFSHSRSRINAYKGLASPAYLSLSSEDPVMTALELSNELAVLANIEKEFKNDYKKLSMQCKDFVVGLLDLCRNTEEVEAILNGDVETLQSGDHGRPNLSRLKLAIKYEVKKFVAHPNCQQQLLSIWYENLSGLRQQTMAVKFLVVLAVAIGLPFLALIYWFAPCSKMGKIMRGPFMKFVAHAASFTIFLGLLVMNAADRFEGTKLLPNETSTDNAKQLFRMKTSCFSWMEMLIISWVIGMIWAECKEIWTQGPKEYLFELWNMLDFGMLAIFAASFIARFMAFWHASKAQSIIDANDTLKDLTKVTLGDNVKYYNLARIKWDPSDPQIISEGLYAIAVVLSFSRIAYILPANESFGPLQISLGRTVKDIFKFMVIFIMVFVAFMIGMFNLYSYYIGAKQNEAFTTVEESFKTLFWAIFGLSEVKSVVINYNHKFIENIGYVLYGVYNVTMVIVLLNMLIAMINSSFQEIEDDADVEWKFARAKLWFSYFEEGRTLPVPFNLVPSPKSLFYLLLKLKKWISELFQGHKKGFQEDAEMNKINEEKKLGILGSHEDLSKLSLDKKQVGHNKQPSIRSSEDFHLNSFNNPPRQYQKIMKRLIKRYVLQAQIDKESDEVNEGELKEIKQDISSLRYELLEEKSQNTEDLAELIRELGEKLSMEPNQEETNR

As for `COc1cc(/C=C/C(=O)N2CCC=CC2=O)cc(OC)c1OC` [Compound 1, piperlongumine], the half-inhibitory concentration (IC50) is above 100 µM against TRPC3; above 100 µM on TRPC6; above 100 µM on TRPM3; 1 µM on TRPV2 (stimulus: 4 μM CBD, spread in log units); above 100 µM at TRPV2 (stimulus: 10 μM CBD). At TRPV2 (1 at 100 μM, CBD 4 μM), the “TRPV2 activity after washout (reversibility)” value is reported as “fully restored upon washout; also recorded: full TRPV2 activity can be reinstated”. Moreover, the Cell viability result in the test with PC3 cell line is “cell viability was compromised”. In addition, in the test on U251 cells, the “Sensitivity of U251 cells” value is “sensitive to PL in a dose- and time-dependent manner”.
